Measured values: the SangsterLogP compilation
Where a SMILES comes first, the peptide text is derived from it. [ ]: non-standard residue; d: D form. Orn = NCCC[CH](N)C(=O)O

Experiment: method code SF-AS, from DOI: 10.1002/jps.2600830720, PMID: 7965659

| SMILES | logD (pH 2.0) | logD (pH 10.0) | further results |
| --- | --- | --- | --- |
| CC[C@H](C)[C@H](NC(C)=O)C(=O)N[C@@H](C)C(=O)N[C@H](C(N)=O)C(C)C |  |  | logD (pH 7.0): -0.21 |
| CC(=O)NC(CCCN)C(=O)NC(Cc1ccccc1)C(N)=O (stereo unspecified) |  | -0.41 |  |
| CSCC[C@H](NC(C)=O)C(=O)N[C@H](C(N)=O)C(C)C |  |  | logD (pH 7.0): -0.28 |
| CC(=O)NCC(=O)N[C@@H](Cc1ccccc1)C(=O)N[C@@H](Cc1c[nH]cn1)C(N)=O |  | -0.92 |  |
| CC[C@H](C)[C@H](NC(=O)[C@H](CCCN)NC(C)=O)C(=O)N[C@H](C(N)=O)C(C)C |  | -0.43 |  |
| CC(=O)NC(Cc1c[nH]c2ccccc12)C(=O)NC(Cc1cnc[nH]1)C(=O)NC(C(N)=O)C(C)C (stereo not drawn) (Ac-Trp-His-Val-NH2; configuration not given here) |  | 0.31 |  |
| CSCC[C@H](NC(C)=O)C(=O)N[C@@H](Cc1ccccc1)C(N)=O |  |  | logD (pH 7.0): 0.42 |
| CC[C@H](C)[C@H](NC(C)=O)C(=O)N[C@@H](Cc1c[nH]cn1)C(=O)N[C@H](C(N)=O)C(C)C |  | -0.24 |  |
| CC[C@H](C)[C@H](NC(C)=O)C(=O)N[C@@H](CCSC)C(=O)N[C@@H](Cc1ccccc1)C(N)=O (Ac-Ile-Met-Phe-NH2) |  |  | logD (pH 7.0): 1.28 |
| CC(=O)NC(Cc1ccccc1)C(=O)NC(Cc1c[nH]c2ccccc12)C(=O)NC(Cc1cnc[nH]1)C(N)=O (stereo not drawn) (Ac-Phe-Trp-His-NH2; configuration not given here) |  | 1 |  |
| CCC(C)C(NC(C)=O)C(=O)NC(CC(C)C)C(=O)NC(CC(=O)O)C(N)=O (stereo not drawn) (Ac-Ile-Leu-Asp-NH2; configuration not given here) | -0.04 |  |  |
| CC(=O)NC(CCCN)C(=O)NC(CC(C)C)C(N)=O (stereo unspecified) (Ac-[Orn]-Leu-NH2; configuration not given here) |  | -0.71 |  |
| CSCC[C@H](NC(=O)[C@H](C)NC(C)=O)C(=O)N[C@H](C(N)=O)C(C)C |  |  | logD (pH 7.0): -0.63 |
| CCC(C)C(NC(=O)C(CC(C)C)NC(C)=O)C(=O)NC(CCC(=O)O)C(N)=O (stereo not drawn) (Ac-Leu-Ile-Glu-NH2; configuration not given here) | 0.07 |  |  |
| CCC(C)C(NC(=O)C(Cc1c[nH]cn1)NC(C)=O)C(=O)NC(Cc1ccccc1)C(N)=O (stereo not drawn) (Ac-His-Ile-Phe-NH2; configuration not given here) |  | 0.44 |  |

More lines, main results first:

| logD (pH 2.0) | logD (pH 10.0) | SMILES | further results |
| --- | --- | --- | --- |
| 0.39 |  | CC(=O)N[C@@H](Cc1ccccc1)C(=O)N[C@@H](CC(=O)O)C(=O)N[C@@H](CC(C)C)C(N)=O |  |
| 0.16 |  | CC(=O)N[C@@H](CC(C)C)C(=O)N[C@@H](CC(=O)O)C(=O)N[C@@H](CC(C)C)C(N)=O |  |
| 0.61 |  | CC[C@H](C)[C@H](NC(=O)[C@H](CC(=O)O)NC(C)=O)C(=O)N[C@@H](Cc1ccccc1)C(N)=O |  |
| 0.65 |  | CC(=O)NC(Cc1ccccc1)C(=O)NC(CCC(=O)O)C(=O)NC(Cc1ccccc1)C(N)=O (stereo not drawn) (Ac-Phe-Glu-Phe-NH2; configuration not given here) |  |
|  | 0.53 | CC(=O)NC(CC(C)C)C(=O)NC(CCCN)C(=O)NC(Cc1ccccc1)C(N)=O (stereo unspecified) (Ac-Leu-[Orn]-Phe-NH2; configuration not given here) |  |
|  | 0.54 | CC(=O)NC(CCCN)C(=O)NC(Cc1ccccc1)C(=O)NC(CC(C)C)C(N)=O (stereo not drawn) (Ac-[Orn]-Phe-Leu-NH2; configuration not given here) |  |
|  | 0.64 | CC(=O)NC(Cc1ccccc1)C(=O)NC(Cc1c[nH]cn1)C(=O)NC(CC(C)C)C(N)=O (stereo not drawn) (Ac-Phe-His-Leu-NH2; configuration not given here) |  |
| 0.32 |  | CC(=O)N[C@@H](CCC(=O)O)C(=O)N[C@@H](Cc1ccccc1)C(=O)N[C@@H](CC(C)C)C(N)=O |  |
| 0.48 |  | CC(=O)N[C@@H](CC(C)C)C(=O)N[C@@H](CCC(=O)O)C(=O)N[C@@H](Cc1ccccc1)C(N)=O |  |
| 0.4 |  | CC(=O)N[C@@H](CC(=O)O)C(=O)N[C@@H](Cc1ccccc1)C(=O)N[C@@H](CC(C)C)C(N)=O |  |
| 0.43 |  | CC[C@H](C)[C@H](NC(=O)[C@H](CCC(=O)O)NC(C)=O)C(=O)N[C@@H](Cc1ccccc1)C(N)=O (Ac-Glu-Ile-Phe-NH2) |  |
